Legend:
[1] = in water, alcohol, and ether; cited from earlier work
[2] = system: rat model of cerebral ischemia; test: Rat model of cerebral ischemia: neurological deficit evaluation (neurobehavioral scores); assay type: in vivo, Male Wistar rats; conditions: scale 0-4, evaluation at 2 and 24 hours after thrombus
Procedure: (§1) Male Wistar rats (250-300 g) were housed in the animal facility for a period of 12 days and given food and water ab libitum. Animals were randomly assigned to groups (n=8/group) of a) control group b) post-ischemia PLP treatment 10 mg/kg c) post-ischemia PLP treatment […] and d) post-ischemia PLP treatment 40 mg/kg.
(§2) The rats of each group were anaesthetized to surgical depth initially with 3% halothane, and maintained with 1.5% halothane in a 70% N2O/30% O2 (vol./vol.) mixture. Animal core temperature was maintained at approx 37° C. using a heating pad and an overhead lamp. Temperature was measured with a rectal thermometer.
(§3) A midline longitudinal incision of approx 2.0 cm was made in the cervical area. Both common carotid arteries (CCA) were dissected from the surrounding tissue and both the right internal carotid artery (ICA) and the right external carotid artery (ECA) were exposed to a maximal length. Branches of the right ECA will be occluded with electro-coagulation and the distal portion ligated. The right CCA and ICA were occluded by temporary clamping, after which the distal end of the ECA was cut to allow catheter insertion. A loose 5.0 silk suture was tied around the proximal right ECA. A PE-50 catheter [Becton-Dickinson, N.J., USA] (0.3 mm O.D at the tip of the catheter and O.D. 0.97 in the catheter body) was attached to a […] filled with 0.5 ml bovine alpha-thrombin (Thrombostat, Parke-Davis).
(§4) The catheter was introduced into the ICA from the ECA and CCA via a small puncture and the silk suture tied around the ECA to prevent bleeding and dislodgement. This was followed by the removal of vascular clips from the ICA and CCA. 10 ul of blood was withdrawn into the catheter and kept in place for 15 minutes for formation of a thrombin clot. Subsequently 17 mm of the catheter (calculated from the puncture site) was gently advanced through the ECA and extra-cranial portion of the ICA to approximately 2 mm from the origin of the middle cerebral artery. After temporary occlusion of the CCAs bilaterally to slow blood flow, the clot was introduced into the ICA. The clip of the contralateral CCA was removed five minutes later and the catheter was removed 10 minutes after the clot introduction. The ipsilateral ICA was then ligated prior to the removal of the clip on the right CCA, 15 minutes after clot injection. The incision was then sutured and the animals allowed to recover from anesthesia whereupon they were given free access to food & water.
Neurological deficit evaluation was conducted at 2 and 24 hours after injection of thrombus. The neurological findings were scored on a four-point grade scale: no observable deficit—0; forelimb flexion—1; forelimb flexion and decreased resistance to lateral push—2; forelimb flexion, decreased lateral push resistance and unilateral circling in three successive trials—3. A score of 4 was given to animals with a score of 3 plus decreased consciousness.
(§5) Control animals were given 3 mL saline (iv) at 2 hours following cerebral ischemia. The pre-ischemia treatment group was given PLP (10 mg/kg, iv in 3 mL) over 30 minutes 1 hour prior to ischemic insult. The post-ischemia groups received PLP at […] iv at 2 hours following cerebral ischemia.
All data was expressed as mean±SD. Two-tailed paired Students t-tests were used to compare differences between values obtained before and after treatment. Statistical analysis of more than two groups of animals were performed with ANOVA, with subsequent individual comparisons by Scheffe's test. Differences were considered significant at […].

[3] = system: rat model of cerebral ischemia; test: Rat model of cerebral ischemia: measurement of infarct damage (TTC staining); assay type: in vivo, Male Wistar rats; conditions: for Infarct Volume (mean): post-ischemia PLP iv, 24 hours after ischemia, control group 37.74%
Procedure: as §1, §2, §3, §4
The infarcted brain tissue in the right MCA territory was differentiated using the 2,3,5-triphenyltetrazolium chloride (TTC) staining method. The rats were perfused transcardially with 120 ml 0.9% normal saline under deep anaesthesia, 24 hours after ischemia. The brain was then removed and cooled in ice-cold saline for 5 minutes after which it was dissected in the coronal plane at 2 mm intervals using a rat brain matrix and stored in 10% buffered formalin for fixing. The stained sections were colour scanned within seven days. The 2 mm thick coronal sections were placed directly on the scanning screen and scanned from rostral to caudal ends, with attention paid to soaking up formalin to prevent shadows, and the use of a black background.
Image contrast and brightness was adjusted with Photoshop 4.0; measurements were made by manually outlining the margins of infarct areas in each section. The total volume of infarction was determined by integrating the […] of the eight chosen sections. Values were corrected for any brain edema.
as §5
All data was expressed as mean±SD. […]

[4] = system: rat model of cerebral ischemia; test: Rat model of cerebral ischemia: seizures, hemorrhage and mortality; conditions: for mortality (number of animals): n=8/group, 2 in control group

Cc1ncc(COP(=O)(O)O)c(C=O)c1O [PLP, 3-hydroxy-2-methyl-5-[(phosphonooxy)methyl]-4-pyridine-carboxaldehyde]
solubility [1]: essentially insoluble
Neurobehavioral score, final (decreased to) ([2]; 10 mg/kg group): 3
Neurobehavioral score, initial (decreased from) ([2]; 10 mg/kg group): 3.6
Neurobehavioral score, final (decreased to) ([2]; 20 mg/kg group): 3
Neurobehavioral score, initial (decreased from) ([2]; 20 mg/kg group): 3.8
Neurobehavioral score, final (decreased to) ([2]; 40 mg/kg group, p<0.001): 1.9
Neurobehavioral score, initial (decreased from) ([2]; 40 mg/kg group, p<0.001): 3.8
Infarct Volume (mean) ([3]; 10 mg/kg treatment group): 28.25%,
Infarct Volume (mean) ([3]; 20 mg/kg treatment group): 27.4%,
infarct reduction, statistical significance ([3]; 40 mg/kg dose): statistically significant
Infarct Volume (mean) ([3]; 40 mg/kg treatment group): 19.3%,
therapeutic effect on infarct size and neurobehavioral activity ([3]; 10, 20, 40 mg/kg): dose-dependant therapeutic effect
anti-ischemic effect in the rat model of ischemia and reperfusion injury ([3]; overall conclusion): demonstrates anti-ischemic effects and benefits against ischemia reperfusion injury
mortality (number of animals) ([4]; 10 mg/kg group): 3
mortality (number of animals) ([4]; 20 mg/kg group): 1
mortality (number of animals) ([4]; 40 mg/kg group): 0
number of seizures ([4]; the three groups (10, 20, 40 mg/kg)): no difference
risk of hemorrhage ([4]; with higher doses): did not increase

— patent US6861439B2, “Treatment of cerebrovascular disease” (Medicure International, Inc., priority 2000, dated 2005)
